This note sets out measurements from US20100298270A1, “Novel Compounds and Methods of Using Them” (SYNDAX PHARMACEUTICALS, INC., priority 2007, published 2010).

A word on the melting point: it is the temperature, or range, at which the solid turns liquid. As for `O=C(NCc1ccn(O)c(=O)c1)OCc1cccnc1` [Example 14, Pyridin-3-ylmethyl (1-hydroxy-2-oxo-1,2-dihydropyridin-4-yl)methylcarbamate], the melting point worked out at 145 °C.
